Numbered stars: 1 amine (or outer) side, 2 acyl side, 3 side chain; on linkers, the order of the positions; unused ones are H or OH. Square brackets hold non-standard residues; d marks the D form. Peptide text beside a SMILES is read from it. * marks the point of attachment. ξ: configuration not given here. X2 = N[C@@H](CO)C(=O)CN([C@@H](Cc1ccccc1)C(=O)[*:2])[*:1]; X3 = C[C@@H](c1ccccc1)[C@H](N[*:1])C(=O)[*:2]; NMe2Phe = CN(C)[C@@H](Cc1ccccc1)C(=O)*; NEtPhe = CCN[C@@H](Cc1ccccc1)C(=O)O; X1 = CCN(CC)[C@@H](Cc1ccccc1)C(=O)*; NMeF = CN[C@@H](Cc1ccccc1)C(=O)O; Tic = O=C(O)[C@@H]1Cc2ccccc2CN1; Aib = CC(C)(N)C(=O)O; Propionyl = CCC(=O)*; Butyryl = CCCC(=O)*; ξLac = CC(O)C(=O)O; For = O=C* Where only a bound is given, the exact number is not on record here.

The species named for the test is Homo sapiens. Description: Agonist activity in human platelet aggregation. It is filed as functional. The conditions noted are these: read-out: ED50 (the source's name).
Consider `CC(C)C[C@H](NCC(=O)[C@H](Cc1ccccc1)NC(=O)[C@@H](N)CO)C(=O)N[C@@H](CC(C)C)C(=O)N[C@@H](CCCN=C(N)N)C(=O)N[C@@H](CC(N)=O)C(=O)O`, for which the EC50 was more than 1000 µM.
With `CC(C)C[C@H](NC(=O)[C@H]1CCCN1C(=O)[C@@H](NC(=O)[C@@H](N)CO)[C@H](C)c1ccccc1)C(=O)N[C@@H](CCCN=C(N)N)C(=O)N[C@@H](CC(N)=O)C(=O)O`, the EC50 is 1.6 µM.
To `CC(C)C[C@H](NC(=O)[C@@H]1Cc2ccccc2CN1C(=O)[C@H](Cc1ccccc1)NC(=O)[C@@H](N)CO)C(=O)N[C@@H](CCCN=C(N)N)C(=O)N[C@@H](CC(N)=O)C(=O)O` (H-SF[Tic]LRN-OH) belongs 4.6 µM; to `CC(C)C[C@H](NC(=O)[C@H](CC(C)C)NC(=O)[C@H](Cc1ccccc1)N(C)C)C(=O)N[C@@H](CCCN=C(N)N)C(=O)N[C@@H](CC(N)=O)C(=O)O` (NMe2Phe-LLRN-OH), more than 1000 µM.
Take `CCCC(=O)N[C@@H](Cc1ccccc1)C(=O)N[C@@H](CC(C)C)C(=O)N[C@@H](CC(C)C)C(=O)N[C@@H](CCCN=C(N)N)C(=O)N[C@@H](CC(N)=O)C(=O)O` (Butyryl-FLLRN-OH): the EC50 is 75.1 µM.
To `CCN[C@@H](Cc1ccccc1)C(=O)N[C@@H](CC(C)C)C(=O)N[C@@H](CC(C)C)C(=O)N[C@@H](CCCN=C(N)N)C(=O)N[C@@H](CC(N)=O)C(=O)O` (H-[NEtPhe]LLRN-OH) belongs more than 1000 µM; to `CC(C)C[C@H](NC(=O)[C@H](CC(C)C)NC(=O)[C@@H](NC(=O)[C@@H](N)CO)[C@H](C)c1ccccc1)C(=O)N[C@@H](CCCN=C(N)N)C(=O)N[C@@H](CC(N)=O)C(=O)O`, 2 µM; to `CC(C)C[C@H](NC(=O)[C@H](CC(C)C)NC(=O)[C@H](Cc1ccccc1)N(C)C(=O)[C@@H](N)CO)C(=O)N[C@@H](CCCN=C(N)N)C(=O)N[C@@H](CC(N)=O)C(=O)O`, more than 1000 µM.
In the case of H-SFGLRN-OH it was 14.8 µM; in that of `CCN(CC)[C@@H](Cc1ccccc1)C(=O)N[C@@H](CC(C)C)C(=O)N[C@@H](CC(C)C)C(=O)N[C@@H](CCCN=C(N)N)C(=O)N[C@@H](CC(N)=O)C(=O)O` (X1-LLRN-OH), more than 1000 µM.
In the case of `CC(C)C[C@H](NC(=O)[C@H](Cc1ccccc1)NC=O)C(=O)N[C@@H](CC(C)C)C(=O)N[C@@H](CCCN=C(N)N)C(=O)N[C@@H](CC(N)=O)C(=O)O` (For-FLLRN-OH), the EC50 amounted to 62.4 µM.
In the case of `CC(C)C[C@H](NC(=O)[C@H]1CCCN1C(=O)[C@@H](NC(=O)[C@@H](N)CO)[C@@H](C)c1ccccc1)C(=O)N[C@@H](CCCN=C(N)N)C(=O)N[C@@H](CC(N)=O)C(=O)O`, the EC50 is 216 µM.
Consider `CC(C)C[C@H](NC(=O)C(C)(C)NC(=O)[C@H](Cc1ccccc1)NC(=O)[C@@H](N)CO)C(=O)N[C@@H](CCCN=C(N)N)C(=O)N[C@@H](CC(N)=O)C(=O)O` (H-SF[Aib]LRN-OH), for which the EC50 is more than 1000 µM.
Take Ac-FLLRN-OH: the EC50 was 84.5 µM.
To `CC(C)C[C@H](NC(=O)[C@H]1CCCN1C(=O)[C@H](Cc1ccccc1)NC(=O)[C@@H](N)CO)C(=O)N[C@@H](CCCN=C(N)N)C(=O)N[C@@H](CC(N)=O)C(=O)O` belongs 5.3 µM; to `CC(C)C[C@H](NC(=O)[C@H](CC(C)C)N(C)C(=O)[C@H](Cc1ccccc1)NC(=O)[C@@H](N)CO)C(=O)N[C@@H](CCCN=C(N)N)C(=O)N[C@@H](CC(N)=O)C(=O)O`, 70 µM.
For `CC(C)C[C@H](NC(=O)[C@H](CC(C)C)NC(=O)[C@H](Cc1ccccc1)NC(=O)[C@@H](N)CO)C(=O)N[C@@H](CCCN=C(N)N)C(=O)N[C@@H](CC(N)=O)C(=O)O`, the EC50 stood at 0.92 µM.
Consider `CCC(=O)N[C@@H](Cc1ccccc1)C(=O)N[C@@H](CC(C)C)C(=O)N[C@@H](CC(C)C)C(=O)N[C@@H](CCCN=C(N)N)C(=O)N[C@@H](CC(N)=O)C(=O)O` (Propionyl-FLLRN-OH), for which the EC50 stood at 35 µM.
In the case of `CC(C)C[C@H](NC(=O)[C@H](CC(C)C)NC(=O)[C@](C)(Cc1ccccc1)NC(=O)[C@@H](N)CO)C(=O)N[C@@H](CCCN=C(N)N)C(=O)N[C@@H](CC(N)=O)C(=O)O` it was 169 µM.
In the case of `CC(C)C[C@H](NC(=O)[C@H](CC(C)C)NC(=O)[C@@H]1Cc2ccccc2CN1C(=O)[C@@H](N)CO)C(=O)N[C@@H](CCCN=C(N)N)C(=O)N[C@@H](CC(N)=O)C(=O)O` (H-S[Tic]LLRN-OH) it was more than 1000 µM; in that of `CNC(=O)C[C@H](NC(=O)[C@H](CCCN=C(N)N)NC(=O)[C@H](CC(C)C)NC(=O)[C@H](CC(C)C)NC(=O)[C@H](Cc1ccccc1)NC(=O)C(C)O)C(=O)O` (some centres undefined) (H-[ξLac]FLLRD(NHMe)-OH), 49 µM; in that of `CC(C)C[C@H](NC(=O)[C@H](Cc1ccccc1)NCC(=O)[C@@H](N)CO)C(=O)N[C@@H](CC(C)C)C(=O)N[C@@H](CCCN=C(N)N)C(=O)N[C@@H](CC(N)=O)C(=O)O` (H-[X2]LLRN-OH), 382 µM.
Take `CC(C)C[C@H](NC(=O)[C@H](CC(C)C)NC(=O)[C@@H](NC(=O)[C@@H](N)CO)[C@@H](C)c1ccccc1)C(=O)N[C@@H](CCCN=C(N)N)C(=O)N[C@@H](CC(N)=O)C(=O)O` (H-S[X3]LLRN-OH): the EC50 worked out at 27 µM.
To `CN[C@@H](Cc1ccccc1)C(=O)N[C@@H](CC(C)C)C(=O)N[C@@H](CC(C)C)C(=O)N[C@@H](CCCN=C(N)N)C(=O)N[C@@H](CC(N)=O)C(=O)O` (H-[NMeF]LLRN-OH) belongs more than 1000 µM.
